In the CATMoS acute toxicity set (Mansouri et al. 2021):

Assay: GHS categories as the set defines them, by LD50: 1 up to 5, 2 up to 50, 3 up to 300, 4 up to 2000, 5 above 2000 mg/kg
Conditions: rat; in vivo; po
Description: […]The data set underlying the modeling effort for this project was initially compiled by NICEATM and U.S. EPA’s CCTE. Briefly, LD50 data were collected from rat acute oral systemic toxicity tests, including limit tests, ranges/confidence intervals, and discrete LD50 values. The full data set included 21,200 LD50 entries for 15,688 substances. […] Data were reviewed to ensure that LD50 values with obvious errors in the extracted data such as unit conversion errors (e.g., comma and decimal separator misplacements) were either fixed or removed. After this review, 16,209 LD50 values remained. Many of the chemicals represented had multiple LD50 entries, requiring that a single representative value per Chemical Abstracts Service Registry Number (CASRN) identifier be defined to facilitate modeling efforts. Based on ATWG feedback and to define the representative LD50 as a protective value while accounting for the distribution across multiple LD50s, the median of the lowest quartile was computed using only discrete LD50 values (omitting limit test data and range and confidence interval data). A detailed summary of the data compilation is available online on the NICEATM webpage dedicated to the collaborative modeling project (NTP 2020).
[…][…] For categorical designations, limit test and range/confidence interval LD50 data were integrated wherever possible. As such, the number of chemicals with end point values/calls varies across the modeling end points (Table 3) based on whether chemicals had representative LD50 values and/or other data. If a chemical had both, the representative value was used to determine categorical calls rather than limit test data. Some data were useable only for certain end points and categories depending on the thresholds. For example, ranges that spanned multiple hazard categories were considered only for the binary (very toxic/nontoxic) end points and omitted from rendering a determination for hazard category assignment.
[…]The final data set comprising 11,992 chemicals was split into training and evaluation sets […], respectively. This process was performed semirandomly by ordering chemicals based on the five end points (categorical and continuous LD50 values) and partitioning every fourth record into the evaluation set accordingly. This approach was taken to ensure an equivalent distribution of the LD50 values and the different hazard categories between the training and the evaluation sets without supervised sampling of the chemicals based on structures (Figure 1A). The sources of the chemical structures were also kept equivalent between the two sets, with chemical structures obtained from DSSTox, being the highest quality, representing over 75% of each set (Figure 1B).

Structure (SMILES) | GHS category
CCCCCCCCCNP1(=S)OCc2cc([N+](=O)[O-])ccc2O1 (stereo not given) | 3
CN1C(=O)c2ccc3c4ccc5c6c(ccc(c7ccc(c2c37)C1=O)c64)C(=O)N(C)C5=O | 5
CC[C@H]1OC(=O)C[C@@H](O)[C@H](C)[C@@H](O[C@@H]2O[C@H](C)[C@@H](O[C@H]3C[C@@](C)(O)[C@@H](O)[C@H](C)O3)[C@H](N(C)C)[C@H]2O)[C@@H](CC=O)C[C@@H](C)C(=O)C=CC(C)=CC1CO[C@@H]1O[C@H](C)[C@@H](O)[C@@H](OC)[C@H]1OC (stereo not given in full) | 5
COc1cc(OC)nc(NC(=O)NS(=O)(=O)c2ncccc2OCC(F)(F)F)n1 | 5
COc1cc([N+](=O)[O-])ccc1N=NC(C(C)=O)C(=O)Nc1ccccc1OC (stereo not given) | 5
CC(C)(Sc1cc(C(C)(C)C)c(O)c(C(C)(C)C)c1)Sc1cc(C(C)(C)C)c(O)c(C(C)(C)C)c1 | 5
CCCNC(=O)c1cnc2ccc(C)cn2c1=O | 3
OCC1CN2CCN1CC2 (stereo not given) | 5
Cc1ncc(CSSCc2cnc(C)c(O)c2CN)c(CN)c1O | 5
CCC=CCC(C)OC(=O)c1ccccc1O (stereo not given) | 5
CC/C=C\CCOC(C)=O | 5
C[C@@H]1[C@H](O)[C@@H](C)C=CC=CC=CC=CC=CC=CC=C[C@H](O[C@@H]2O[C@H](C)[C@@H](O)[C@H](N)[C@@H]2O)C[C@@H]2O[C@](O)(C[C@@H](O)C[C@@H](O)[C@H](O)CC[C@@H](O)C[C@@H](O)CC(=O)O[C@H]1C)C[C@H](O)[C@H]2C(=O)O | 5
CC(C)=NO | 5
CC(=O)OCCOC(C)C | 4
O=C1c2ccccc2C(=O)c2c(Nc3ccccc3)ccc(O)c21 | 5
O=C(OCCOCCO)c1cc(O)ccc1Nc1ccc(O)c(C(F)(F)F)c1 | 4
CC1(C)CC[C@@]2(C(=O)O)CC[C@@]3(C)C(=CC[C@H]4[C@]5(C)CC[C@@H](O)C(C)(C)[C@H]5CC[C@@]43C)[C@H]2C1 (racemic) | 5
O=C(O)CCC(=O)OC1N=C(c2ccccc2)c2cc(Cl)ccc2NC1=O (stereo not given) | 5
CCCc1ccc(OCC(=O)N2CCN(C(=O)COc3ccc(CCC)cc3OC)CC2)c(OC)c1 | 4
CCCCCCCCCCCCCCCCOC(=O)Oc1c(Cl)cc(C(=O)OCC)cc1Cl | 5
NC(=O)c1ccc(NC(=O)c2ccc([N+](=O)[O-])cc2)cc1 | 5
Cc1cccc2ncc(C(=O)Nc3ccc(F)cc3)c(=O)n12 | 3
C[C@@H]1O[C@@H](O[C@@H]2[C@@H](O)[C@H](OCCc3ccc(O)c(O)c3)O[C@H](CO)[C@H]2OC(=O)C=Cc2ccc(O)c(O)c2)[C@H](O)[C@H](O)[C@H]1O | 5

Structure (SMILES) | GHS category
N#CCN(CC#N)CCN(CC#N)CC#N | 5
CCCCCCCOc1ccc(-c2ccc(C#N)cc2)cc1 | 5
CC(=O)C1(Cl)CC1 | 4
CCOC(=O)c1c(N)sc2c1CCN(Cc1ccccc1)C2 | 5
O=c1oc2ccc(Cl)cc2n1CO | 4
CC(C)CCCCCCCCCCOC(=O)CCCCC(=O)OCCCCCCCCCCC(C)C | 5
CCCCOC(=O)c1ccccc1N | 5
CCC1(c2ccccc2O)NC(=O)NC1=O (stereo not given) | 5
CCN(C)CCC(C#N)(CC=C(C)C)c1cccc2ccccc12 (stereo not given) | 4
CCOc1nn(-c2cccc(C(F)(F)F)c2)c2ncccc12 | 4
CN1C(CCl)Nc2cc(Cl)c(S(N)(=O)=O)cc2S1(=O)=O (stereo not given) | 5
FC(F)(F)c1cccc(C(F)(F)F)c1 | 5
O=c1[nH]sc2cc(Cl)ccc12 | 5
Clc1cc(Cl)c2oc(C3(Cn4cncn4)OCCCO3)cc2c1 | 4
O=C(Nc1ccc(Cl)cc1)c1ccccc1 | 4
CCOCCC(C)CCC=C(C)C (stereo not given) | 5
CCCCCCCCCCSCCN1CCCC1=O | 5
CCCCCCCCCCCCCCCc1cccc(OC(=O)c2ccccc2OC(N)=O)c1 | 5
CC(C)(C)c1ccc(C2=C3C(=O)NC(c4ccc(C(C)(C)C)cc4)=C3C(=O)N2)cc1 | 5
COC[C@H]1CO[C@@](Cn2ccnc2)(c2cc3ccccc3o2)O1 | 4
CCCCC(CC)COC(=O)CC(CC(=O)OCC(CC)CCCC)(OC(C)=O)C(=O)OCC(CC)CCCC (stereo not given) | 5
CC(C)OC(=O)Nc1nc(N2CC=CCC2)cc2nc(=O)on12 | 5
Nc1ccc(S(=O)(=O)O)cc1N | 5

Structure (SMILES) | GHS category
CC(C)=CC/C(C)=C/COC(=O)c1ccccc1 | 5
CC(=O)CC(=O)Nc1ccc(S(=O)(=O)O)cc1 | 5
CCCc1nc2ccnn2c(NCCN2CCCC2)c1Cc1ccc(-c2ccccc2-c2nn[nH]n2)cc1 | 4
Nc1ccc2oc(=O)[nH]c2c1 | 4
CCCCCCC(O)CO (stereo not given) | 5
COc1nc(OC)nc(C(=O)c2cccc(F)c2N(C)S(=O)(=O)C(F)(F)F)n1 | 5
CN1OCCC(=Cc2cc(C(C)(C)C)c(O)c(C(C)(C)C)c2)C1=O | 4
CS(=O)(=O)c1ccc(O)c(Cl)c1 | 4
C/C=C(\C)C(=O)OC(C)C | 5
COc1ccc(NC(=O)c2cc3ccccc3cc2O)cc1 | 5
CN(C)CCn1nnnc1SCC1=C(C(=O)O)N2C(=O)[C@@H](NC(=O)Cc3csc(N)n3)[C@H]2SC1 | 5
CC(C)(C)OOC(C)(C)c1ccc(C(C)(C)OOC(C)(C)C)cc1 | 5
C/C=C(\C)C(=O)OCC/C=C\CC | 5
CCCCCCCC/C=C\CCCCCCCC#N | 5
Cc1[nH]n(-c2ccccc2)c(=O)c1N=Nc1ccc(-c2ccc(N=Nc3c(C)[nH]n(-c4ccccc4)c3=O)c(Cl)c2)cc1Cl | 5
CCCCCCC1(C)CCC(=O)O1 (stereo not given) | 5
CCCOC(=O)Nc1nc(N2CC=CCC2)cc2nc(=O)on12 | 5
CCNC(=O)[C@@H]1CCCN1C(=O)[C@H](CCCNC(=N)N)NC(=O)[C@H](CC(C)C)NC(=O)[C@@H](CC(C)C)NC(=O)[C@H](Cc1ccc(O)cc1)NC(=O)[C@H](CO)NC(=O)[C@H](Cc1c[nH]c2ccccc12)NC(=O)[C@H](Cc1cnc[nH]1)NC(=O)[C@@H]1CCC(=O)N1 | 5
CCC(=NOC/C=C/Cl)C1=C(O)CC(C2CCOCC2)CC1=O (stereo not given) | 5
O=S(=O)(O)CCO | 5
N#Cc1ccc(NC(=O)Oc2ccccc2)cc1 | 5
CCOC(=O)c1cc(Cl)ccc1OC(N)=O | 5
CC(C)c1ccccc1OP(=O)(Oc1ccccc1C(C)C)Oc1ccccc1C(C)C | 5

Structure (SMILES) | GHS category
NC(=O)Oc1ccccc1C(=O)Oc1ccccc1 | 5
COC(=O)[C@]1(C)CCC[C@@]2(C)[C@H]1CC=C1C=C(C(C)C)CC[C@@H]12 | 5
CCN(C(=O)CCCn1nnnc1C)C1CCCCC1 | 4
NC(=O)NCCO | 5
Cc1cc(C)c(C(=O)P(=O)(c2ccccc2)c2ccccc2)c(C)c1 | 5
CC(C)CC(=O)OC1CC(C)CCC1C(C)C (stereo not given) | 5
CC(CC=O)CCCC(C)(C)O (stereo not given) | 5
CCOc1nc2cccc(C(=O)OC(C)OC(=O)OC3CCCCC3)c2n1Cc1ccc(-c2ccccc2-c2nnn[nH]2)cc1 (stereo not given) | 5
CC(C)C[C@H](NC(=O)CNC(=O)[C@H](Cc1ccc(O)cc1)NC(=O)[C@H](CO)NC(=O)[C@H](Cc1c[nH]c2ccccc12)NC(=O)[C@H](Cc1cnc[nH]1)NC(=O)[C@@H]1CCC(=O)N1)C(=O)N[C@@H](CCCN=C(N)N)C(=O)N1CCC[C@H]1C(=O)NCC(N)=O | 5
CCOc1ccc(N(CCCC(=O)O)C(=O)c2ccc(Cl)cc2)cc1 | 5
O=C1NC(=O)C(c2ccc(O)cc2)(c2cccs2)N1 (stereo not given) | 5
CCCCCCCCCCC=O | 5
O=[N+]([O-])c1ccc(CCc2ccc([N+](=O)[O-])cc2)cc1 | 5
Nc1nc(C2CC2)nc(C(=O)O)c1Cl | 5
O=C(O)C1(O)c2ccccc2-c2ccc(Cl)cc21 (stereo not given) | 5
OC[C@H]1O[C@@H](n2cnc3c(O)ncnc32)[C@H](O)[C@@H]1O | 5
CNC(=O)c1sc(-c2ccc(OC)c(OC)c2)nc1C | 5
C=C(C)CCCC(C)CCOC(=O)CC (stereo not given) | 5
CC(C)C[C@H](NC(=O)[C@@H](Cc1ccc2ccccc2c1)NC(=O)[C@H](Cc1ccc(O)cc1)NC(=O)[C@H](CO)NC(=O)[C@H](Cc1c[nH]c2ccccc12)NC(=O)[C@H](Cc1cnc[nH]1)NC(=O)[C@@H]1CCC(=O)N1)C(=O)N[C@@H](CCCN=C(N)N)C(=O)N1CCC[C@H]1C(=O)NCC(N)=O | 3
CCCCOC(=O)CCP1(=O)Oc2ccccc2-c2ccccc21 (stereo not given) | 5
CCSCCCSc1nnnn1C | 4
